The values that follow come from patent US20100087388A1, “ODCASE INHIBITORS AS ANTI-VIRALS AND ANTIBIOTICS” (priority 2005, published 2010).

Each structure is given as a SMILES string. pKi: −log10 of the molar value.

Data set [1] deals with T1, Staphylococcus aureus ODCase (Staphylococcus aureus, UniProt Q6GHN1).
T1 construct: made in house; host or cells: E. coli BL21(DE3), pET24a(+)
Briefly: ODCase enzyme inhibition assay. The format is biochemical. Particulars: read-out: K1 against Staphylococcus aureus ODCase. The source says: ODCase gene, pyrF, was obtained from the complete genomes of the respective bacteria through ATCC. The pyrF gene was amplified from the genome of S. aureus M252 using two synthetic primers: Dir 5′-[…] [SEQ ID NO: 1] and Rev 5′-[…] [SEQ ID NO: 2].
The pET expression system was used to express ODCase from pyrF. The cloning strategy can use any generic strategies, herein a double digestion of pET24a(+) expression vector and pyrF separately using EcoRI and HindIII restriction enzyme was used to produce digestion products with sticky ends. […] The digested vector was separated from the restriction enzyme by gel purification by QIAquick Gel Extraction Kit Protocol using microcentrifuge and quantified on 1% agarose gel with 2-log ladder as standard. In addition to quantifying DNA, 1% agarose gel was run with undigested vector to confirm that the vector was digested.
pyrF from the PCR mixture was also double digested in 50 uL solution using the same conditions described above. The separation of the pyrF from restriction enzymes was carried out by QIAquick Gel Extraction Kit Protocol using Microcentrifuge, and the collected gene was quantified on 1% agarose gel. […]

The subject of data set [2] is human primary blood cells.

T1 sequence (Q6GHN1 whole entry): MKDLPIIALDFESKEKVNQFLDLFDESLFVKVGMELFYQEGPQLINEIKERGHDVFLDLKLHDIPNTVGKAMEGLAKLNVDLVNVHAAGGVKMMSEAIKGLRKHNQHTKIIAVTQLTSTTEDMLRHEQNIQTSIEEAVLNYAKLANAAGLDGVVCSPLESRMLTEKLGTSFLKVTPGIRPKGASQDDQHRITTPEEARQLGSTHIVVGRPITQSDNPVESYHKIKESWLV

On to `O=c1cc(I)n([C@@H]2O[C@H](COP(=O)(O)O)[C@@H](O)[C@H]2O)c(=O)[nH]1` [Ib, 6-Iodo uridine-5′-O-monophosphate], for which the pKi in data set [1] was > 7.30.

`O=c1cc(I)n([C@@H]2O[C@H](CO)[C@@H](O)[C@H]2O)c(=O)[nH]1` [Ia, 6-Iodo-uridine]: in data set [2], the “Effect on human primary blood cells (indications of toxicity)” value is given as “did not inhibit primary cells significantly”.
